How the values were obtained:
RelA [1] = molecular target: T1, RelA (Escherichia coli, UniProt P0AG20); test: 3H-GTP conversion to pppGpp by purified RelA with ribosomes, TLC; assay type: biochemical
T1 construct: untagged native full-length RelA
T1 sequence (P0AG20 1-744): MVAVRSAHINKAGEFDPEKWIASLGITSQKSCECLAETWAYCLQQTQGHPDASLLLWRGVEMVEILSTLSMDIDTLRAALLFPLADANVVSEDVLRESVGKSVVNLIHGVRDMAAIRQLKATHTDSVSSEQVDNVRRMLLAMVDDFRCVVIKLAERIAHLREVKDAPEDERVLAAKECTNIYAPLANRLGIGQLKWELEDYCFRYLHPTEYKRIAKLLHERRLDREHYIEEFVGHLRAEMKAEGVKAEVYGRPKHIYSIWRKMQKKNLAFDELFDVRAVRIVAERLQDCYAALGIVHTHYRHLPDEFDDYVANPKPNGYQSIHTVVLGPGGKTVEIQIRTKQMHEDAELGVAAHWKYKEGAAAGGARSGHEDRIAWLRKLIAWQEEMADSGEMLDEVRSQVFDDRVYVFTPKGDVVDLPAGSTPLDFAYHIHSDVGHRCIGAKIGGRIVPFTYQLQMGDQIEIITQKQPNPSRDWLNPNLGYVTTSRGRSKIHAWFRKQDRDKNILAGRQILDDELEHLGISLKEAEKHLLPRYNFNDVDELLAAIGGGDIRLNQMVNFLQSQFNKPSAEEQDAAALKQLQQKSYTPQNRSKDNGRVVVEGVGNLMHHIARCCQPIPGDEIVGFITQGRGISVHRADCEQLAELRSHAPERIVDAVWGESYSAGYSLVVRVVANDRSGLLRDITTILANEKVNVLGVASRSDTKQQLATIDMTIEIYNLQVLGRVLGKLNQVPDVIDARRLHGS

RelA [2] = molecular target: T1, RelA; test: 3H-ppGpp synthesis assay (TLC) with purified RelA, pppGpp titration (activation), RelA alone or with starved ribosomal complexes; assay type: biochemical
RelA [3] = molecular target: T1, RelA; test: product of 3H-GDP conversion by purified RelA; added at […] it only mildly modulates activity; assay type: biochemical
RelA [4] = molecular target: T1, RelA; test: 3H-GDP conversion to ppGpp by purified RelA with vacant 70S or starved ribosomal complexes, TLC; assay type: biochemical
RelA (untagged native) = molecular target: T2, RelA (untagged native) (Escherichia coli DH5alpha, UniProt P0AG20 1-744); test: EMSA; 70 nM RNA, up to 60x excess RelA; weak binding (KD above 3 uM) not excluded; HEPES:Polymix buffer, 5 mM Mg2+, pH 7.5, 37 C; conditions: protein: recombinant; tags: none; hairpin
T2 sequence: T1 sequence (P0AG20 1-744)

Molecule: Nc1nc2c(ncn2[C@@H]2O[C@H](COP(=O)(O)OP(=O)(O)OP(=O)(O)O)[C@@H](O)[C@H]2O)c(=O)[nH]1 [GTP]
- 3H-GTP conversion to pppGpp by purified RelA with ribosomes, TLC (RelA [1]): 896 ± 29 pppGpp reactions per RelA per minute

Molecule: Nc1nc2c(ncn2[C@@H]2O[C@H](COP(=O)(O)OP(=O)(O)OP(=O)(O)O)[C@@H](OP(=O)(O)OP(=O)(O)O)[C@H]2O)c(=O)[nH]1 [pppGpp]
- EC50 (RelA [2]): 500 to 600 nM

Molecule: Nc1nc2c(ncn2[C@@H]2O[C@H](COP(=O)(O)OP(=O)(O)O)[C@@H](OP(=O)(O)OP(=O)(O)O)[C@H]2O)c(=O)[nH]1 [ppGpp]
- product of 3H-GDP conversion by purified RelA; added at 100 μM it only mildly mo (RelA [3]): When GTP is used as a substrate, ppGpp acts as a weak inhibitor

Molecule: Nc1nc2c(ncn2[C@@H]2O[C@H](COP(=O)(O)OP(=O)(O)O)[C@@H](O)[C@H]2O)c(=O)[nH]1 [GDP]
- 3H-GDP conversion to ppGpp by purified RelA with vacant 70S or starved ribosomal (RelA [4]): 1077±62 ppGpp per RelA per minute

B1: ASF RNA oligonucleotide (23S rRNA H38, 34 nt) (structured_RNA)
RNA: UCGGCAAGGGGGUCAUCCCGACUUACCAACCCGA
- binding result (RelA (untagged native)): no binding
